Experiments:
HT-22 cells = settings: cited from earlier work
HMGB1 = HMGB1 cytosolic/nuclear levels in ISO/Ca2+-treated ES-CMs; type: cell-based, mouse; settings: ISO/Ca2+-treated Dsg2^mut/mut ES-CMs, 7 days, peptide
Description: Mouse embryonic stem cells (ESs) were maintained and differentiated, and the absence of mycoplasma contamination was confirmed prior to experimental studies. Briefly, mouse ESs from both WT and Dsg2^mut/mut mice were derived from E3.5 embryos and maintained on gelatin-coated dishes in maintenance medium (Glasgow minimum essential medium supplemented with 10% fetal bovine serum and 3 μM Chir99021 and 1 μM PD98059 or 1000 U/ml ESGRO; Millipore), Glutamax, sodium pyruvate, and MEM non-essential amino acids (Thermo Fisher Scientific). For cardiomyocyte (CM) differentiation, ESs were plated in IMDM/Ham's F12 (Cellgro, at 3:1) supplemented with N2, B27, penicillin/streptomycin, 2 mM GlutaMAX, 0.05% BSA, 5 ng/ml L-ascorbic acid (Sigma-Aldrich), and α-monothioglycerol (MTG; Sigma-Aldrich) at a final density of 100,000 cells/ml to allow spheroid formation. After 48 hours, embryoid bodies were collected and transferred to ultra-low attachment plastic surface and induced for 40 hours with Activin A and Bmp4 (R&D Systems). Cells were then dissociated and plated as monolayers for 48 hours in the presence of 10 μM XAV to allow cardiomyocyte differentiation. The resulting ES-CMs were cultured 45 days before experimental procedures were performed. […]

tAIF = experiment: Nuclear import and localization of tAIF in ISO/Ca2+-treated ES-CMs; type: cell-based, mouse; settings: ISO/Ca2+-treated Dsg2^mut/mut ES-CMs, 7 days
Description: Mouse embryonic stem cells (ESs) were maintained and differentiated, and the absence of mycoplasma contamination was confirmed prior to experimental studies. Briefly, mouse ESs from both WT and Dsg2^mut/mut mice were derived from E3.5 embryos and maintained on gelatin-coated dishes in maintenance medium (Glasgow minimum essential medium supplemented with 10% fetal bovine serum and 3 μM Chir99021 and 1 μM PD98059 or 1000 U/ml ESGRO; Millipore), Glutamax, sodium pyruvate, and MEM non-essential amino acids (Thermo Fisher Scientific). […]
All myocardium (sedentary and exercised mouse cohorts and patient myocardial biopsies) were formalin-fixed and paraffin-embedded (FFPE). […] Following three additional washes, ProLong Gold Antifade Mountant with DAPI (Thermofisher, 936931) were applied, and slides were coverslipped, and immunoreactive signal was detected via laser scanning microscopy (Zeiss LSM 510 Meta). […]
Following immunostaining, AIF-fluorescence and nuclear fluorescence (DAPI) were detected via laser scanning microscopy (Zeiss LSM 510 Meta) via a sequential fashion to avoid crosstalk between fluorophores. Merged images were obtained using Zeiss LSM software, and approximately 3-10 Regions of Interest (ROIs) were assessed per condition (mouse myocardium and patient myocardial biopsies). […]

PPIA = PPIA (Homo sapiens, UniProt P62937); settings: read-out: KD, affinity to PPIA-binding; cited from earlier work
Chain of PPIA (P62937 whole entry, species assumed): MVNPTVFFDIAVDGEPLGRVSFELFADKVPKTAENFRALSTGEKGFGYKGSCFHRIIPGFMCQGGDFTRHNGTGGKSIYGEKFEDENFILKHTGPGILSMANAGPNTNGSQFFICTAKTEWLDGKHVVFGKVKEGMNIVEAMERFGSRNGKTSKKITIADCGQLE

Dsg2^mut/mut ES-CMs = experiment: FACS analysis of apoptosis (AnnexinV/propidium iodide) in ISO/Ca2+-treated ES-CMs; type: cell-based, mouse; settings: 7 days, 5 μM or 25 μM peptide
Description: Mouse embryonic stem cells (ESs) were maintained and differentiated, and the absence of mycoplasma contamination was confirmed prior to experimental studies. Briefly, mouse ESs from both WT and Dsg2^mut/mut mice were derived from E3.5 embryos and maintained on gelatin-coated dishes in maintenance medium (Glasgow minimum essential medium supplemented with 10% fetal bovine serum and 3 μM Chir99021 and 1 μM PD98059 or 1000 U/ml ESGRO; Millipore), Glutamax, sodium pyruvate, and MEM non-essential amino acids (Thermo Fisher Scientific). For cardiomyocyte (CM) differentiation, ESs were plated in IMDM/Ham's F12 (Cellgro, at 3:1) supplemented with N2, B27, penicillin/streptomycin, 2 mM GlutaMAX, 0.05% BSA, 5 ng/ml L-ascorbic acid (Sigma-Aldrich), and α-monothioglycerol (MTG; Sigma-Aldrich) at a final density of 100,000 cells/ml to allow spheroid formation. After 48 hours, embryoid bodies were collected and transferred to ultra-low attachment plastic surface and induced for 40 hours with Activin A and Bmp4 (R&D Systems). Cells were then dissociated and plated as monolayers for 48 hours in the presence of 10 μM XAV to allow cardiomyocyte differentiation. […] (4) After 7 days of treatment, ES-CMs were stained with AnnexinV in a buffer containing 10 mM HEPES (pH 7.4), 140 mM NaCl, 2.5 mM CaCl2, followed by the addition of 1 mg/ml propidium iodide and analyzed by flow cytometry.

| Substance | neuroprotective effects in HT-22 cells during the oxidative stress (HT-22 cells) | increased cytosolic and decreased nuclear HMGB1 levels (HMGB1) | PPIA-mediated nuclear import of tAIF (immunoblot) (tAIF) | tAIF nuclear localization (immunostaining) (tAIF) | Kd (PPIA) | apoptosis (FACS) (Dsg2^mut/mut ES-CMs) |
| --- | --- | --- | --- | --- | --- | --- |
| Ac-CIKLKDGRKVC-NH2 [AIF (381-389) ox, Cyclic peptide, 11 amino acids long] | provides neuroprotective | – | – | – | – | – |
| NH2-GRKKRRQRRR(βAla)QSVGVSSGKLLIKLKDGRKVETDHI-NH2 (GRKKRRQRRRAQSVGVSSGKLLIKLKDGRKVETDHI; C-terminal amide; MOD_RES (11)..(11) 1,2-dihydro-3(6h)-pyridinone beta-alanine) [TAT-AIF (370-394), Linear peptide, 38 amino acids long, N-terminal TAT fragment for cell uptake] | – | prevented | precluded | precluded | 12 µM | attenuated |

Reference: US20240109937A1, “BINDING PEPTIDES AND USES THEREOF” (The Johns Hopkins University, priority 2021, published 2024)
